Measurements reported in ChEMBL document CHEMBL1137975, “DNA binding ligands with in vivo efficacy in murine models of bacterial infection: optimization of internal aromatic amino acids” (2004).
≈ marks a conversion by molar mass, not a printed value.

Key:
Enterococcus faecalis = assay: Minimum inhibitory concentration in mice against antimicrobial activity in vancomycin-sensitive Enterococcus faecalis (VSEF 29212).
Staphylococcus aureus = assay: Minimum inhibitory concentration in mice against antimicrobial activity in methicillin-resistant Staphylococcus aureus(MRSA 27660).; format: functional
[1] = Minimum inhibitory concentration in mice against antimicrobial activity in […] (PISP 49619).; format: functional; details: Streptococcus pneumoniae
Mus musculus [2] = species: Mus musculus; assay: Minimum inhibitory concentration was evaluated in mice against antimicrobial activity in methicillin-resistant Staphylococcus aureus(MRSA 27660); 0.06-0.13; format: functional
Mus musculus [3] = species: Mus musculus; assay: Minimum inhibitory concentration was evaluated in mice against antimicrobial activity in […] (PISP 49619); 0.03-0.06; format: functional
Mus musculus [4] = species: Mus musculus; assay: Minimum inhibitory concentration was evaluated in mice against antimicrobial activity in […] (PISP 49619); 0.13-0.25; format: functional
Mus musculus [5] = species: Mus musculus; assay: Minimum inhibitory concentration was evaluated in mice against antimicrobial activity in methicillin-resistant Staphylococcus aureus(MRSA 27660); 1-2; format: functional
Mus musculus [6] = species: Mus musculus; assay: Minimum inhibitory concentration was evaluated in mice against antimicrobial activity in […] (PISP 49619); 0.5-1; format: functional
Mus musculus [7] = species: Mus musculus; assay: Minimum inhibitory concentration was evaluated in mice against antimicrobial activity in […] (PISP 49619); 1-32; format: functional

| SMILES | MIC (Enterococcus faecalis) [µg/mL] | MIC (Staphylococcus aureus) [µg/mL] | MIC [1] [µg/mL] | other results |
| --- | --- | --- | --- | --- |
| Cc1cnc(C(=O)Nc2cc(C(=O)Nc3ccc(C(=O)Nc4cc(C(=O)NCCN5CCOCC5)n(C)c4)cc3)n(C)c2)cn1 | 2 (≈ 3.26 µM) | 0.5 (≈ 0.815 µM) | 0.13 (≈ 0.212 µM) | – |
| Cn1cc(NC(=O)c2ccc(NC(=O)c3cc(NC(=O)c4cc5ccccc5cn4)cn3C)cc2)cc1C(=O)NCCN1CCOCC1 | – | – | – | MIC (Mus musculus [2]): 0.13 µg/mL (≈ 0.2 µM); MIC (Mus musculus [3]): 0.06 µg/mL (≈ 0.0925 µM) |
| Cn1cc(NC(=O)c2ccc(NC(=O)c3cc(NC(=O)c4nccc5ccccc45)cn3C)cc2)cc1C(=O)NCCN1CCOCC1 | 2 (≈ 3.08 µM) | 1 (≈ 1.54 µM) | 0.25 (≈ 0.385 µM) | – |
| Cn1cc(NC(=O)c2cc(NC(=O)c3cc(NC(=O)c4cc5ccccc5cn4)cs3)cn2C)cc1C(=O)NCCN1CCOCC1 | – | – | – | MIC (Mus musculus [4]): 0.25 µg/mL (≈ 0.382 µM); MIC (Mus musculus [5]): 2 µg/mL (≈ 3.05 µM) |
| Cn1cc(NC(=O)c2sccc2Cl)cc1C(=O)Nc1cc(C(=O)Nc2cccc(C(=O)NCCN3CCOCC3)c2)n(C)c1 | 16 (≈ 25.1 µM) | 16 (≈ 25.1 µM) | 8 (≈ 12.5 µM) | – |
| Cn1cc(NC(=O)c2ccc(NC(=O)c3cc(NC(=O)c4ccncn4)cn3C)cc2)cc1C(=O)NCCN1CCOCC1 | 32 (≈ 53.4 µM) | > 32 | 0.5 (≈ 0.834 µM) | – |
| Cn1cc(NC(=O)c2sccc2Cl)cc1C(=O)Nc1cc(C(=O)Nc2cc(C(=O)NCCN3CCOCC3)n(C)n2)n(C)c1 | > 32 | > 32 | > 32 | – |
| Cn1cc(NC(=O)c2ccc(NC(=O)c3cc(NC(=O)c4sc5ccccc5c4Cl)cn3C)cc2)cc1C(=O)NCCN1CCOCC1 | 16 (≈ 23.2 µM) | > 32 | 0.25 (≈ 0.363 µM) | – |
| Cn1cc(NC(=O)c2cc(NC(=O)c3ccc(NC(=O)c4sccc4Cl)cc3)cn2C)cc1C(=O)NCCN1CCOCC1 | 16 (≈ 25.1 µM) | 32 (≈ 50.1 µM) | 32 (≈ 50.1 µM) | – |
| Cn1cc(NC(=O)c2cc(NC(=O)c3cc(NC(=O)c4cc5ccccc5cn4)cn3C)nn2C)cc1C(=O)NCCN1CCOCC1 | 1 (≈ 1.53 µM) | 0.5 (≈ 0.766 µM) | 0.25 (≈ 0.383 µM) | – |
| Cn1cc(NC(=O)c2ccc(NC(=O)c3cc(NC(=O)c4sccc4Cl)cn3C)cc2)cc1C(=O)NCCN1CCOCC1 | 2 (≈ 3.13 µM) | 8 (≈ 12.5 µM) | 1 (≈ 1.57 µM) | – |
| Cn1cc(NC(=O)c2cc(NC(=O)c3cc(NC(=O)c4cc5ccccc5cn4)on3)cn2C)cc1C(=O)NCCN1CCOCC1 | 0.5 (≈ 0.782 µM) | 0.06 (≈ 0.0938 µM) | 0.13 (≈ 0.203 µM) | – |
| Cn1cc(NC(=O)c2cc(NC(=O)c3cccc(NC(=O)c4sccc4Cl)c3)cn2C)cc1C(=O)NCCN1CCOCC1 | > 32 | > 32 | > 32 | – |
| Cn1cc(NC(=O)c2cc(NC(=O)c3cc(NC(=O)c4cc5ccccc5cn4)nn3C)cn2C)cc1C(=O)NCCN1CCOCC1 | 8 (≈ 12.3 µM) | 1 (≈ 1.53 µM) | 0.5 (≈ 0.766 µM) | – |
| Cn1cc(NC(=O)c2cccc(NC(=O)c3cc(NC(=O)c4sccc4Cl)cn3C)c2)cc1C(=O)NCCN1CCOCC1 | > 32 | > 32 | > 32 | – |
| Cn1cc(NC(=O)c2sccc2Cl)cc1C(=O)Nc1cc(C(=O)Nc2cn(C)c(C(=O)NCCN3CCOCC3)n2)n(C)c1 | > 32 | > 32 | > 32 | – |
| CC(C)n1cc(NC(=O)c2sccc2Cl)cc1C(=O)Nc1cc(C(=O)Nc2cc(C(=O)NCCN3CCOCC3)n(C)c2)n(C)c1 | 4 (≈ 5.98 µM) | 4 (≈ 5.98 µM) | 2 (≈ 2.99 µM) | – |
| Cn1cc(NC(=O)c2cc(NC(=O)c3cc(NC(=O)c4cc5ccccc5cn4)c[nH]3)cn2C)cc1C(=O)NCCN1CCOCC1 | 0.5 (≈ 0.784 µM) | – | – | MIC (Mus musculus [6]): 1 µg/mL (≈ 1.57 µM); MIC (Mus musculus [5]): 2 µg/mL (≈ 3.14 µM) |
| Cn1cc(NC(=O)c2ccc(NC(=O)c3cc(NC(=O)c4cc5cc6c(cc5cn4)OCO6)cn3C)cc2)cc1C(=O)NCCN1CCOCC1 | 0.5 (≈ 0.722 µM) | 0.06 (≈ 0.0866 µM) | 0.5 (≈ 0.722 µM) | – |
| Cn1cc(NC(=O)c2cc(NC(=O)c3cc(NC(=O)c4sccc4Cl)cn3C)nn2C)cc1C(=O)NCCN1CCOCC1 | > 32 | 32 (≈ 49.8 µM) | – | MIC (Mus musculus [7]): 32 µg/mL (≈ 49.8 µM) |
